According to US20070275368A1, “Posh Associated Kinases And Related Methods” (PROTEOLOGICS, LTD., priority 2003, published 2007):

What was measured:
[1] = tested on: T1, Bacterially expressed recombinant maltose-binding-protein (MBP)-hPOSH
T1 sequence: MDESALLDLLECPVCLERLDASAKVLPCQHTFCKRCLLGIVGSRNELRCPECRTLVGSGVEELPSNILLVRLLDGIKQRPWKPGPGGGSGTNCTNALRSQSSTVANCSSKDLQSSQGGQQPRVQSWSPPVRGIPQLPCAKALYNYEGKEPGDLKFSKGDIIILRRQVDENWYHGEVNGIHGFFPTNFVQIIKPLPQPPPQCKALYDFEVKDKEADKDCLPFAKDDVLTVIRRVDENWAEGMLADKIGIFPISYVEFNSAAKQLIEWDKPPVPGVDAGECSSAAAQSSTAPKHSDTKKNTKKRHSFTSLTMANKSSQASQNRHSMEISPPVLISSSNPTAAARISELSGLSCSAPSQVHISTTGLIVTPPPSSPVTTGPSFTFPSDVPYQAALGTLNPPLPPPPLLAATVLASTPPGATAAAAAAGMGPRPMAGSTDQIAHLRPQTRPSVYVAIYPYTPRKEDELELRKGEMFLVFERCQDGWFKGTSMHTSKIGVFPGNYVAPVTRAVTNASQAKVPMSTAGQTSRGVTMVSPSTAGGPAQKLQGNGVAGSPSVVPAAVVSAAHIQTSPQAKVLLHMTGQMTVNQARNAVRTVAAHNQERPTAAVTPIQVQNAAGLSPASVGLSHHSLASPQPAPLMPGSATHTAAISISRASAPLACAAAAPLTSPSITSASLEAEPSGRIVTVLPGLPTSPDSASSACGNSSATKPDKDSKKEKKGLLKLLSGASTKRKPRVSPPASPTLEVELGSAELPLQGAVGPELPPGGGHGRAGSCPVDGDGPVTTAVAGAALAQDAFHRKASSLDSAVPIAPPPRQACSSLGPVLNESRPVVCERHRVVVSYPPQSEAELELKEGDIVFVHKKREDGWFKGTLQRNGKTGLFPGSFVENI

HIV-1 [2] = conditions: H89 50 μM, HeLa SS6 cells transfected with pNLenv-1, 20 minutes after shift to 37° C.
Description: HeLa SS6 cells were transfected with pNLenv-1PTAP or pNLenv-1ATAA (L-domain mutant). Eighteen hours post-transfection, cells were transferred to 20° C. for two hours in order to inhibit transport of viral particles from the trans-Golgi (TGN) to the plasma membrane (PM). Subsequently, the PKA inhibitor, H89 (50 μM) (Biosource, Cat. No. PHZ1114) or DMSO were added to the cells and dishes were transferred to 37° C. to initiate transport from the TGN to the PM. Reverse transcriptase activity was assayed from virus-like-particles collected from cell supernatant twenty minutes later.
For transfections, HeLa SS6 cells were grown to 100% confluency in DMEM containing 10% FCS without antibiotics. Cells were then transfected with HIV-1NLenv1 (2 μg per 6-well) (Schubert et al., 1995).
Virus and virus-like particle (VLP) release by reverse transcriptase activity was determined one day after transfection with the pro-viral DNA as previously described (Adachi et al., 1986; Fukumori et al., 2000; Lenardo et al., 2002). The culture medium of virus-expressing cells was collected and centrifuged at 500×g for 10 minutes. The resulting supernatant was passed through a 0.45 μm-pore filter and the filtrate was centrifuged at 14,000×g for 2 hours at 4° C. […]

HIV-1 [3] = conditions: Cartier et al., 2003; cited from earlier work

Compound	phosphorylation of hPOSH (immunoblot with PKA-substrate phospho-specific antibody) [1]	inhibition of RT activity of virus-like-particles collected from cell supernatant (HIV-1 [2])	block of HIV-1 release from cells (HIV-1 [3])
PKA catalytic subunit (PKAc)	POSH is phosphorylated by PKA	–	–
O=S(=O)(NCCNCC=Cc1ccc(Br)cc1)c1cccc2cnccc12 [H89, N-[2-((Pbromocinnamyl)amino)ethyl]isoquinolinesulfonamide]	–	complete inhibition	able to block HIV-1 release from cells
